Reference: patent US9776976B2, “Triazolone compounds and uses thereof” (Inception 2, Inc., priority 2013, dated 2017)

Legend:
Type in all cases: cell-based
Human PPARα = target: T1, Human PPARα (Homo sapiens, UniProt Q07869); assay: Human PPARα Reporter Assay (luciferase, Indigo Biosciences); details: antagonist mode, reporter cells, overnight incubation
T1 construct: host or cells: proprietary non-human mammalian cells
T1 sequence (Q07869 1-468): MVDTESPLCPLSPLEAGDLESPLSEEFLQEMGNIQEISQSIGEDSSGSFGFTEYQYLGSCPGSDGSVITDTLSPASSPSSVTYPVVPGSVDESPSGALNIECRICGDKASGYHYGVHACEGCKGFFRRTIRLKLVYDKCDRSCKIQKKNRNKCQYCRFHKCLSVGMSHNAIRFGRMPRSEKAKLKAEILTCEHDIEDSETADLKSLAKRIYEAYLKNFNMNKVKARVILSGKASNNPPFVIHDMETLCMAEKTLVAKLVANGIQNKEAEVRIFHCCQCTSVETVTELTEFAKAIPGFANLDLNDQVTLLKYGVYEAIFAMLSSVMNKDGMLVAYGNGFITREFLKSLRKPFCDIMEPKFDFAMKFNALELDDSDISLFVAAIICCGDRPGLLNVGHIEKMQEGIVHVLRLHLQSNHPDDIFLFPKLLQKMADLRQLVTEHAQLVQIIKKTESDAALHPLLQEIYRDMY
Protocol: Human PPARα Reporter Assay The screening of test compounds for agonist or antagonist activities against human PPARα receptors was performed using a commercial kit, Human PPARα Reporter Assay System (Indigo Biosciences, Cat. #IB00111). This nuclear receptor assay system utilizes proprietary non-human mammalian cells engineered to provide constitutive, high-level expression of Human PPARα. Because these cells incorporate a PPARα-responsive luciferase reporter gene, quantifying expressed luciferase activity provides a sensitive surrogate measure of PPARα activity in the treated cells. The primary application of this reporter assay system is in the screening of test samples to quantify any functional activity, either agonist or antagonist, that they may exert against human PPARα. […] Briefly, reporter cells are dispensed into wells of the assay plate and then immediately dosed with test compounds. Following an overnight incubation, the treatment media is discarded and Luciferase Detection Reagent (LDR) is added. The intensity of light emission from the ensuing luciferase reaction provides a sensitive measure that is directly proportional to the relative level of PPARα activation in the reporter cells.

human PPAR γ = target: T2, human PPAR γ (Homo sapiens, UniProt P37231); assay: Human PPARγ reporter assay (Indigo Biosciences kit); details: antagonist mode, agonist at ~EC80; read-out: PPARγ
T2 sequence (P37231 1-505): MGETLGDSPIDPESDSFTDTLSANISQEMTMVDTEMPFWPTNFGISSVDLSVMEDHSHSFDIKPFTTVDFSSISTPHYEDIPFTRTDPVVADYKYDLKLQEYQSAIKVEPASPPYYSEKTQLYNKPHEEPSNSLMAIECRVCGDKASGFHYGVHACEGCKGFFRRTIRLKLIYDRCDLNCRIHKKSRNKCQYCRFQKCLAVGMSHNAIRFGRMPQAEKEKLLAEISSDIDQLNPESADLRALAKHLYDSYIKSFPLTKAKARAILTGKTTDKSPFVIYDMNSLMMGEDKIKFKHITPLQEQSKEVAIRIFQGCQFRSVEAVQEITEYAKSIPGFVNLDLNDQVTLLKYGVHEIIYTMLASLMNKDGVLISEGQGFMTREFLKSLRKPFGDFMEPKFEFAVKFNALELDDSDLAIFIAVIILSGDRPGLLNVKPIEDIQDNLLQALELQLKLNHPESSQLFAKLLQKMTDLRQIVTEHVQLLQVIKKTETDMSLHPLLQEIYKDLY
Protocol: (§1) Target Selectivity Assays
(§2) To determine species selectivity, a Mouse PPARα Reporter Assay System was used (Indigo Biosciences, Cat. #M00111). Activity of test compounds to antagonize or agonize other isoforms of human PPAR, for example β/δ and γ, were assessed using the corresponding kits from Indigo Biosciences (Cat. #IB00121 and #IB00101, respectively). In addition to PPAR activity, compounds were also screened for activity against other nuclear hormone receptors including Estrogen Receptor β, Glucocorticoid Receptor and Thyroid Receptor β using commercially available kits (Indigo Biosciences, Cat. #IB00411, IB00201 and IB01101, respectively). Each assay system from Indigo Biosciences uses technology analogous to the human PPARα kit, with the variance being that the cells used for each assay were engineered to over-express the receptor of interest. In addition, the appropriate receptor agonist (included with each kit) was used at ˜EC80 for assays in which antagonist potency was being assessed.

human PPAR β/δ = target: T3, human PPAR β/δ (Homo sapiens, UniProt Q03181); assay: Human PPAR β/δ reporter assay (luciferase, Indigo Biosciences kit); details: antagonist mode, agonist at ~EC80; read-out: PPARδ Luciferase IC50
T3 construct: host or cells: engineered reporter cells (analogous to the PPARα kit)
T3 sequence (Q03181 1-441): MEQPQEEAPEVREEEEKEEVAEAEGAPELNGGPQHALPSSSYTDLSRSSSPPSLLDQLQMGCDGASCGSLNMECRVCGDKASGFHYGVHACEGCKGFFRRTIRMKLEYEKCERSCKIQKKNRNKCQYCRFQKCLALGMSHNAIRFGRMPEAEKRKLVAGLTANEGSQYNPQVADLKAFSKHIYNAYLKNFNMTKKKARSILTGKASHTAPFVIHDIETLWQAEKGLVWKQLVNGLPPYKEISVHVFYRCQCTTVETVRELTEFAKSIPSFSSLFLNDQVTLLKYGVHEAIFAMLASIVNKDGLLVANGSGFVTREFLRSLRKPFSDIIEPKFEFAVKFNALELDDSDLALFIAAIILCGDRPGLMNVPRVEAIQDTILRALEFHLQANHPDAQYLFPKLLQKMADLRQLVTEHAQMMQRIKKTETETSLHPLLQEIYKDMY
Protocol: as §1, §2

SMILES	IC50 (Human PPARα) [nM]	IC50 (human PPAR γ) [nM]	IC50 (human PPAR β/δ) [nM]
CCOc1ccc(-c2cccc(CCCc3nn(-c4ccc(C(F)(F)F)cc4)c(=O)n3C(C)C)c2)cc1CC(=O)O [Example 31]	199	56900	742
CCOc1ccc(-c2ccc(CCCc3nn(-c4ccc(C(F)(F)F)cc4Cl)c(=O)n3-c3ccccc3F)cc2)cc1CC(=O)O [Example 33, 2-(4-ethoxy-4′-(3-(4-(2-fluorophenyl)-5-oxo-1-(2-chloro-4-(trifluoromethyl)phenyl)-4,5-dihydro-1H-1,2,4-triazol-3-yl)propyl)-[1,1′-biphenyl]-3-yl)acetic acid]	138	32300	746
CCCOc1ccc(-c2ccc(CCCc3nn(-c4ccc(C(F)(F)F)cc4)c(=O)n3-c3ccccc3F)cc2)cc1CC(=O)O [Example 39, 2-(4-propoxy-4′-(3-(4-(2-fluorophenyl)-5-oxo-1-(4-(trifluoromethyl)phenyl)-4,5-dihydro-1H-1,2,4-triazol-3-yl)propyl)-[1,1′-biphenyl-]-3-yl)acetic acid]	111	20000	34

Second part, the molecule after the results:

IC50 (Human PPARα) [nM]	IC50 (human PPAR γ) [nM]	IC50 (human PPAR β/δ) [nM]	SMILES
343	29000	100	CCOc1ccc(-c2ccc(CCCc3nn(-c4ccc(C(F)(F)F)cc4)c(=O)n3-c3ccccc3CC)cc2)cc1CC(=O)O [Example 25, 2-(4-ethoxy-4′-(3-(4-(2-ethylphenyl)-5-oxo-1-(4-(trifluoromethyl)phenyl)-4,5-dihydro-1H-1,2,4-triazol-3-yl)propyl)-[1,1′-biphenyl]-3-yl)acetic acid]
28	28900	236	CCOc1ccc(-c2ccc(CCCc3nn(-c4ccc(C(C)C)cc4)c(=O)n3-c3ccccc3Cl)cc2)cc1CC(=O)O [Example 27, 2-(4′-(3-(4-(2-chlorophenyl)-1-(4-isopropylphenyl)-5-oxo-4,5-dihydro-1H-1,2,4-triazol-3-yl)propyl)-4-ethoxy-[1,1′-biphenyl-]-3-yl)acetic acid]
165	32900	789	CCOc1ccc(-c2ccc(CCCc3nn(-c4ccc(C(C)(C)C)cc4)c(=O)n3-c3c(Cl)cccc3Cl)cc2)cc1CC(=O)O [Example 28]
386	27600	96	CCOc1ccc(-c2cccc(CCCc3nn(-c4ccc(C(F)(F)F)cc4)c(=O)n3-c3ccccc3F)c2)cc1CC(=O)O [Example 30, 2-(4-ethoxy-3′-(3-(4-(2-fluorophenyl)-5-oxo-1-(4-(trifluoromethyl)phenyl)-4,5-dihydro-1H-1,2,4-triazol-3-yl)propyl)-[1,1′-biphenyl]-3-yl)acetic acid]
